We go through four molecules from article PMC9021956, “Screening and Identification of HBV Epitopes Restricted by Multiple Prevalent HLA-A Allotypes” (Frontiers in Immunology, 2022).

Like-named read-outs stand apart in the source and are kept apart here. Residues, ends and D or L forms follow the SMILES beside them. Bounds are passed on as bounds.

One assay concerns the target T1, HLA-A0201 (Homo sapiens, UniProt P04439, D140Y/D185E/D98H/E176V/E277Q/G131W/G231S/I119V/I121R/I166T/I218V/L300P/L318F/N151K/N90K/P208A/P217A/Q86G/Q94H/R138H/R169H/T345S).
T1 construct: expressed in transfected cells; host or cells: HMy2.CIR
As to the kind of experiment: cell-based. The format is binding. Conditions: for inhibition at 5 µM / inhibition at 15 µM: HLA-A0201 HMy2.CIR cells, 24 hours, flow cytometry; for inhibition at 5 µM: competitor peptide 5μM, read-out: 5μM Inhibition (%); for inhibition at 15 µM: competitor peptide 15μM, read-out: 15μM Inhibition (%). A digest of the protocol: (§1)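 HMy2.CIR cells stably transfected with each HLA-A allele were acid-stripped (citric acid/Na2HPO4, pH 3.3, 1 min), neutralized in IMDM with 0.5% BSA, then given β2-m (1 μg/mL) and unlabeled competitor plus the FITC reference peptide. FITC+ cells were measured by flow cytometry, and IC50 was taken from percent competition.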
(A flow cytometer gives signals particle by particle.)

For the next assay, the target named is T2, HLA-A0206 (Homo sapiens, UniProt P04439, D140Y/D185E/D98H/E176V/E277Q/F33Y/G131W/G231S/I119V/I121R/I166T/I218V/L300P/L318F/N151K/N90K/P208A/P217A/Q86G/Q94H/R138H/R169H/T345S).
T2 construct: expressed in transfected cells; host or cells: HMy2.CIR
As to the kind of experiment: cell-based. The format is binding. Conditions: for inhibition at 5 µM / inhibition at 15 µM: HLA-A0206 HMy2.CIR cells, 24 hours, flow cytometry; for inhibition at 5 µM: competitor peptide 5μM, read-out: 5μM Inhibition (%); for inhibition at 15 µM: competitor peptide 15μM, read-out: 15μM Inhibition (%). A digest of the protocol:
as §1

A further assay addresses T3, HLA-A0207 (Homo sapiens, UniProt P04439, D140Y/D185E/D98H/E176V/E277Q/G131W/G231S/I119V/I121R/I166T/I218V/L300P/L318F/N151K/N90K/P208A/P217A/Q86G/Q94H/R138H/R169H/T345S/Y123C).
T3 construct: expressed in transfected cells; host or cells: HMy2.CIR
Nature of the assay: cell-based. The format is binding. Conditions: for inhibition at 5 µM / inhibition at 15 µM: HLA-A0207 HMy2.CIR cells, 24 hours, flow cytometry; for inhibition at 5 µM: competitor peptide 5μM, read-out: 5μM Inhibition (%); for inhibition at 15 µM: competitor peptide 15μM, read-out: 15μM Inhibition (%). Put shortly: as §1

The target in another assay is T4, HLA-A1101 (Homo sapiens, UniProt P04439, A114D/D185E/E176A/F33Y/L180Q/S129P/T187R).
T4 construct: expressed in transfected cells; host or cells: HMy2.CIR
Nature of the assay: cell-based. The format is binding. Conditions: for inhibition at 5 µM: read-out: 5μM Inhibition (%); for inhibition at 15 µM: read-out: 15μM Inhibition (%). Put shortly: as §1

A further assay has as its target HLA-A2402 (Homo sapiens, UniProt P04439, D101N/D140Y/D185E/E176V/E190D/F33S/G103R/G107R/I119L/I121M/I306V/K335N/L105A/L180Q/L300P/N151K/N90K/Q86E/Q94H/R106L/R138H/R89G/T104I/T345S/V100E/W191G/Y123F). As to the kind of experiment: cell-based. The format is binding. Conditions: for inhibition at 5 µM / inhibition at 15 µM: HLA-A2402 HMy2.CIR cells, 24 hours, flow cytometry; for inhibition at 5 µM: competitor peptide 5μM; for inhibition at 15 µM: competitor peptide 15μM. A digest of the protocol:
as §1

The target in a further assay is T5, HLA-A3303 (Homo sapiens, UniProt P04439, A270S/D185E/E176V/E277Q/E87N/F33T/G231S/H175R/I121M/I218V/I322F/K168Q/L300P/L318F/M331R/P217A/Q86R/Q94H/R138Q/T323A/T345S/T97I/V358M).
T5 construct: expressed in transfected cells; host or cells: HMy2.CIR
As to the kind of experiment: cell-based. The assay is classed as binding. Conditions: for inhibition at 5 µM / inhibition at 15 µM: HLA-A3303 HMy2.CIR cells, 24 hours, flow cytometry; for inhibition at 5 µM: competitor peptide 5μM, read-out: 5μM Inhibition (%); for inhibition at 15 µM: competitor peptide 15μM, read-out: 15μM Inhibition (%). A digest of the protocol:
as §1

Assay [1] deals with twelve prevalent HLA-A allotypes. As to the kind of experiment: Peptide competitive binding assay, whole panel. On the set-up: species or system human. Conditions: high = IC50<5μM. Here is the method: A set of fluoresce-labeled reference peptides (positive-control peptide) were synthesized with a purity of >99% by Sangon Biotech and stored at 4°C, such as FLPSDK(FITC)FPSV for A0201, A0203 and A0206 ([30]), YVNVNK(FITC)GLK for A1101 and A3303 ([31]), EYLVSK(FITC)GVW for A2402 ([32]), ATFQFK(FITC)VER for A3101, A1102 and A0301 ([33]), KLPDDFK(FITC)GCV for A0207 ([34]), YLEPAK(FITC)AKY for A0101 ([30]), and ASRELK(FITC)VSY for A3001 (identified in house). Then the competitive peptide binding assay was performed as described with minor modifications ([30], [35]). Briefly, the HMy2.CIR cell lines expressing the indicated HLA-A molecule were washed with acid buffer (0.131M citric acid and 0.061M sodium phosphate Na2HPO4, PH3.3, 0.22 μm filtered) for 1 min, and immediately neutralized by IMDM medium containing 0.5% BSA. After washing, the cells were seeded into 96-well U culture plate (1×10^5 cells/100 μL/well) with β2-m (1 μg/mL). […] In parallel, no peptide control well (cells alone) and positive control well (cells with FITC-labeled reference peptide) were also performed.
The plate was centrifuged at 600 rpm for 5 min at room temperature (RT). Cells were washed twice with 100 μL cold 0.5% BSA-PBS. Finally, cells were resuspended with 150 μL PBS and analyzed with flow cytometry. Sample % is the percentage of FITC^+ cells in the experiment well, while the background % is the percentage of FITC^+ cells in the no peptide control well, and the max % is the percentage of FITC^+ cells in the positive control well. Competitive binding (%) = [1-(sample % - background %)/(max % – background %)] × 100%. […] Binding affinity of unlabeled peptide with the indicated HLA-A molecule is assessed by IC50.
Subsequently, the unlabeled epitope peptides of HBV competed with fluorescently labeled reference peptides in the binding with HLA-A molecules onto transfected cell lines for 24 hours. Here, twelve prevalent HLA-A allotypes were tested with totally 62 HBV epitope peptides validated in house.

Another assay concerns the target T6, HLA-A0203 (Homo sapiens, UniProt P04439, A173T/D140Y/D185E/D98H/E277Q/G131W/G231S/I119V/I121R/I166T/I218V/L180W/L300P/L318F/N151K/N90K/P208A/P217A/Q86G/Q94H/R138H/R169H/T345S).
T6 construct: expressed in transfected cells; host or cells: HMy2.CIR
Nature of the assay: cell-based. The format is binding. Conditions: for inhibition at 5 µM / inhibition at 15 µM: HLA-A0203 HMy2.CIR cells, 24 hours, flow cytometry; for inhibition at 5 µM: competitor peptide 5μM; for inhibition at 15 µM: competitor peptide 15μM. A digest of the protocol: as §1

In a further assay the target is T7, HLA-A0301 (Homo sapiens, UniProt P04439).
T7 construct: expressed in transfected cells; host or cells: HMy2.CIR
Nature of the assay: Peptide competitive binding assay, transfected HMy2.CIR cells, reference ATFQFK(FITC)VER. A digest of the protocol: as §1

In another assay the target is T8, HLA-A1102 (Homo sapiens, UniProt P04439, A114D/D185E/E176A/E43K/F33Y/L180Q/S129P/T187R).
T8 construct: expressed in transfected cells; host or cells: HMy2.CIR
Described as above. Put shortly: as §1

Setting [2] is: HLA-A1101 HMy2.CIR cells, competitor peptide 5μM, 24 hours, flow cytometry.
The mark [3] stands for this setting: HLA-A1101 HMy2.CIR cells, competitor peptide 15μM, 24 hours, flow cytometry.

For orientation: inhibition means the drop in the measured response relative to a control, in per cent. As for `CC[C@H](C)[C@H](NC(=O)CNC(=O)[C@H](CC(C)C)NC(=O)[C@H](CO)NC(=O)[C@H](CC(C)C)NC(=O)[C@H](CC(C)C)NC(=O)[C@@H](N)Cc1ccccc1)C(=O)N[C@@H](Cc1c[nH]cn1)C(=O)N[C@@H](CC(C)C)C(=O)O` [Epitope P10], the inhibition at 5 µM at HLA-A0201 stood at 81.7%; at HLA-A0206, 21.5%; on HLA-A0207, 27%; at HLA-A1101 (setting [2]), 7.2%; at HLA-A2402, 19%; at HLA-A3303, 60.1%. Moreover, the inhibition at 15 µM at HLA-A0201 came out at 71.6%; at HLA-A0206 it was 43.2%; on HLA-A0207, 31%; at HLA-A1101 (setting [3]) it was 8%; on HLA-A2402 it was 17%; on HLA-A3303 it was 66.1%. Besides, in [1], the “number of HLA-A allotypes bound with high affinity” value (shortened to “number of HLA-A allotypes bound”) was “two”.
Take `CC[C@H](C)[C@H](NC(=O)[C@H](Cc1c[nH]c2ccccc12)NC(=O)[C@@H](NC(=O)CNC(=O)[C@H](Cc1ccccc1)NC(=O)[C@H](CO)NC(=O)[C@@H](NC(=O)[C@H](CC(C)C)NC(=O)[C@@H](N)Cc1ccc(O)cc1)C(C)C)C(C)C)C(=O)O` [Epitope P11]: the IC50 was less than 5 µM on HLA-A0201, less than 5 µM on HLA-A0203, more than 15 µM on HLA-A1101 and more than 15 µM at HLA-A3303. Also, the inhibition at 5 µM at HLA-A0201 was determined as 81.2%; at HLA-A0203, 89.4%; at HLA-A1101 (24 h), 17.1%; on HLA-A2402, 41%; on HLA-A3303, 10.2%. Also, the inhibition at 15 µM stood at 96.2% at HLA-A0201; 97.4% on HLA-A0203; 20% at HLA-A1101 (24 h); 52.5% at HLA-A2402; 4.63% on HLA-A3303. Also, at HLA-A2402, the Affinity entry was “inter”. In addition, the “number of HLA-A allotypes bound” value in [1] is “two”.
Regarding `CC(C)C[C@H](NC(=O)[C@H](CC(N)=O)NC(=O)CNC(=O)[C@H](Cc1c[nH]cn1)NC(=O)[C@H](C)NC(=O)[C@H](CC(N)=O)NC(=O)[C@@H](NC(=O)[C@@H](N)[C@@H](C)O)C(C)C)C(=O)N1CCC[C@H]1C(=O)N[C@@H](CCCCN)C(=O)O` [Epitope P47] (H-TVNAHGNLPK-OH; N-terminus and C-terminus assumed), the IC50 was more than 15 µM at HLA-A0201, less than 5 µM on HLA-A1101, less than 5 µM at HLA-A0301 (read-out: Affinity) and more than 15 µM on HLA-A1102 (read-out: Affinity). Further, the inhibition at 5 µM at HLA-A0201 amounted to 7.2%; at HLA-A1101 (setting [2]) it was 78.3%; on HLA-A0301 (HLA-A0301 HMy2.CIR cells, competitor peptide 5μM, 24 hours, flow cytometry, read-out: 5μM Inhibition (%)) it was 65.8%; at HLA-A1102 (HLA-A1102 HMy2.CIR cells, competitor peptide 5μM, 24 hours, flow cytometry, read-out: 5μM Inhibition (%)) it was 24.7%. Also, the inhibition at 15 µM is 12% at HLA-A0201; 90.3% at HLA-A1101 (setting [3]); 78.1% at HLA-A0301 (HLA-A0301 HMy2.CIR cells, competitor peptide 15μM, 24 hours, flow cytometry, read-out: 15μM Inhibition (%)); 44.2% at HLA-A1102 (HLA-A1102 HMy2.CIR cells, competitor peptide 15μM, 24 hours, flow cytometry, read-out: 15μM Inhibition (%)). In addition, the “number of HLA-A allotypes bound” value in assay [1] was “two”.
As to `CC(C)C[C@H](NC(=O)[C@@H](N)Cc1ccccc1)C(=O)N1CCC[C@H]1C(=O)N[C@@H](CO)C(=O)N[C@@H](CC(=O)O)C(=O)N[C@@H](Cc1ccccc1)C(=O)N[C@@H](Cc1ccccc1)C(=O)N1CCC[C@H]1C(=O)N[C@@H](CO)C(=O)O` [Epitope P67] (H-FLPSDFFPS-OH; N-terminus and C-terminus assumed), the IC50 at HLA-A0201 is less than 5 µM; at HLA-A0203, less than 5 µM; on HLA-A0206, less than 5 µM; at HLA-A0207, more than 15 µM; at HLA-A2402, more than 15 µM; on HLA-A3303 it was more than 15 µM. In addition, the inhibition at 5 µM stood at 91.5% on HLA-A0201; 86.3% at HLA-A0203; 95.7% at HLA-A0206; 42% at HLA-A0207; 2% at HLA-A2402; 0% at HLA-A3303. Also, the inhibition at 15 µM at HLA-A0201 was found to be 97.8%; at HLA-A0203 it was 91.5%; at HLA-A0206 it was 100%; at HLA-A0207 it was 48%; at HLA-A2402, 4.3%; on HLA-A3303 it was 0%. Besides, the “number of HLA-A allotypes bound” value in assay [1] was “three”.
